Measurements as given in patent US6509367B1 (priority 2001, dated 2003).
“Also recorded” adds a separate entry of the source. Read-outs that look alike come from different tables or passages of the source. Marks after values point to notes of the source that are not given here.

Columns and labels:
CB1 receptor = CB1 receptor (Rattus norvegicus, UniProt P20272); assay: biochemical; assay type: binding; conditions: for Ki: 1 nM [3H] CP 55,940, rat whole brain P2 membranes, 30° C. for 1 hr
Description: (§1) Male ICR mice (25-32 g), purchased from Harlan (Dublin, Va.), were housed in groups of five. All animals were kept in a temperature-controlled (20-22° C.) environment with a 12-hour light-dark cycle (lights on at 7 a.m.). Separate mice were used for testing each drug dose in the in vivo behavioral procedures. The mice were maintained on a […] light: dark cycle, and received food and water ad libitum. Brain tissue for binding studies was obtained from male Sprague-Dawley rats (150-200 g) purchased from Harlan Laboratories (Dublin, Va.).
All assays, as described briefly below, were performed in triplicate, and the results represent the combined data from three to six individual experiments. Following decapitation and rapid removal of the brain, whole brain was homogenized and centrifuged. The resulting pellet was termed P1. The supernatant was saved and combined with the two subsequent supernatants obtained from washing of the P1 pellet. The combined supernatant fractions were centrifuged, resulting in the P2 pellet. After further incubation and centrifuging, this pellet was resuspended in assay buffer to a protein concentration of approximately 2 mg/ml. The membrane preparation was quickly frozen in a bath solution of dry ice and 2-methylbutane (Sigma Chemical Co., St. Louis, Mo.), then stored at −80° C. for no more than 2 weeks. […] Binding was initiated by the addition of 150 μg of P2 membrane to test tubes containing 1 nM of [3H] […] Following incubation at 30° C. for 1 hr, binding was terminated by addition of ice-cold buffer and vacuum filtration through pretreated filters in a 12-well sampling manifold (Millipore, Bedford, Mass.). After washing, filters were placed into plastic scintillation vials (Packard, Downer Grove, Ill.) and shaken. The quantity of radioactivity present was determined by liquid scintillation spectrometry.

mice [1] = assay: Tail-flick antinociception in mice, compound in combination with 3 mg/kg Δ^9-THC (antagonism test); assay type: in vivo
Description: as §1
(§2) Measurement of spontaneous activity in mice occurred in standard activity chambers interfaced with a Digiscan Animal Activity Monitor (Omnitech Electronics, Inc., Columbus, Ohio). A standard tail-flick apparatus (described by Dewey et al., 1970) and a digital thermometer (Fisher Scientific, Pittsburgh, Pa.) were used to measure antinociception and rectal temperature, respectively.
(§3) All drugs were administered to the mice intravenously (i.v.) in the tail vein at a volume of 0.1 ml/10 g.
(§4) Maximum latency of 10 sec was used.

mice [2] = assay: Rectal temperature in mice, compound in combination with 3 mg/kg Δ^9-THC (antagonism test); assay type: in vivo
Description: as §1, §2, §3, §4

mice [3] = assay: Agonism tests in mice, stated across the triad (spontaneous activity, tail flick, rectal temperature); conditions: compound alone, i.v. doses up to 30 mg/kg
mice [4] = assay: Spontaneous activity in mice, compound in combination with 3 mg/kg Δ^9-THC (antagonism test); assay type: in vivo; conditions: for SA: maximum % antagonism of 3 mg/kg Δ^9-THC: analog 10 min before Δ^9-THC
Description: as §1, §2, §3, §4

mice [5] = assay: Rectal temperature (hypothermia) in mice, compound alone (agonism test); assay type: in vivo; conditions: for ED50: Mus musculus, iv
Description: as §1, §2, §3, §4

mice [6] = assay: Spontaneous (locomotor) activity in mice, compound alone (agonism test); assay type: in vivo; conditions: for change in vivo at 3 mg/kg: at 3 mg/kg i.v.; for stimulation of locomotor activity: compound alone, dose not given (see Table 5)
Description: as §1, §2, §3, §4

mice [7] = assay: Tail-flick antinociception in mice, compound alone (agonism test); assay type: in vivo; conditions: for ED50: Mus musculus, iv
Description: as §1, §2, §3, §4

mice [8] = assay: Antagonism tests with 3 mg/kg Δ^9-THC, stated across the measures (locomotor, antinociception, hypothermia)
mice [9] = conditions: from Wiley et al., 1998; cited from earlier work
mice [10] = conditions: from Wiley et al., 1998; cited from earlier work; remark: listed apart in the source
mice [11] = conditions: from Wiley et al., 1998; cited from earlier work; remark: listed apart in the source
[12] = at the dose(s) [mg/kg] given in parentheses in the cell
[13] = 0.5 h, i.v., 30 min post-injection, 95% confidence limits in parentheses, read-out: RT (rectal temperature) ED50
[14] = Mus musculus, iv, read-out: Max stim of spontaneous locomotor activity, Compound Alone
[15] = Mus musculus, iv, at 30 mg/kg i.v., read-out: Max % inhibit of spontaneous locomotor activity, Compound Alone
[16] = Mus musculus, iv, mice, i.v., 95% confidence limits in parentheses, * = estimated ED50, dose-effect curve not linear, read-out: SA (suppression of spontaneous activity) ED50
[17] = 20 min, i.v., 20 min post-injection, 95% confidence limits in parentheses, * = estimated ED50, dose-effect curve not linear, read-out: TF (tail flick, % MPE) ED50
[18] = read-out: RT: > dose, 50% activity not achieved at this highest dose tested
[19] = Mus musculus, iv, mice, i.v., read-out: SA: > dose, 50% activity not achieved at this highest dose tested
[20] = read-out: TF: > dose, 50% activity not achieved at this highest dose tested

Sequence of CB1 receptor (P20272 whole entry): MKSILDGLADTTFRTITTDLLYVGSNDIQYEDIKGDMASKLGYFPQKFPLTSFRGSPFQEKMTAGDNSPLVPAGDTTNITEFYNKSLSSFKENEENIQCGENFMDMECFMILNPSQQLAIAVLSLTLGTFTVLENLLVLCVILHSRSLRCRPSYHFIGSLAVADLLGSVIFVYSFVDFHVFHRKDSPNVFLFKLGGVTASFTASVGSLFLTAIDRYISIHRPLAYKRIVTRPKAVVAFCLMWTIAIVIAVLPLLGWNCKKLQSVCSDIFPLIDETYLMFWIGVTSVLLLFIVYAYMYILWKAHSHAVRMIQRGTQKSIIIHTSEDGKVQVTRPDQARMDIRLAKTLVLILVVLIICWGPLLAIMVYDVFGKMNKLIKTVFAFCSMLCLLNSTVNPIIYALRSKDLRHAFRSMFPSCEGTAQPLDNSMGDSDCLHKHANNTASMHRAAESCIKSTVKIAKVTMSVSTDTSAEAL

## CCCCCCCNC(=O)c1nn(-c2ccc(Cl)cc2Cl)c(-c2ccc(Cl)cc2)c1C [Compound O-1270, N-(n-heptyl)-5-(4-chlorophenyl)-1-(2,4-dichlorophenyl)-4-methyl-1H-pyrazole-3-carboxamide]
CB1 receptor; Ki (nM)
  Ki: 48 ± 12 nM
Mice [1]; at 3 mg/kg i.v.
  % MPE: maximum % antagonism of 3 mg/kg Δ^9-THC: 37% (3)
Mice [2]; at 1 mg/kg i.v.
  RT: maximum % antagonism of 3 mg/kg Δ^9-THC: 26% (1)
Mice [3]
  in vivo cannabinoid agonist activity (in words): agonist activity
Mice [4]; at 10 mg/kg i.v.
  Max % inhibit of spontaneous locomotor activity, Compound with 3 mg/kg Δ^9-THC: 87% (10)
Mice [4]; [12]
  Max stim of spontaneous locomotor activity, Compound with 3 mg/kg Δ^9-THC (in words): None (10)
  SA: maximum % antagonism of 3 mg/kg Δ^9-THC (in words): None (10)
Mice [5]; [13]
  ED50: 12 µmol/kg
Mice [6]; [14]
  change in vivo at 3 mg/kg: 29%
Mice [6]; [15]
  inhibition in vivo at 30 mg/kg: 80%
Mice [6]; [16]
  ED50: 27 µmol/kg
Mice [6]
  stimulation of locomotor activity: 29%
Mice [7]; [17]
  ED50: 20 µmol/kg

## CCC(C)c1ccc(-n2nc(C(=O)NN3CCCCC3)c(C)c2-c2ccc(Cl)cc2)cc1 (centres unmarked) [Compound O-1253]
CB1 receptor; Ki (nM)
  Ki: 47 ± 2 nM
CB1 receptor; compared to SR 141716A
  CB1 binding affinity, fold less than SR 141716A: 8 fold
Mice [4]; at 0.1 mg/kg i.v.
  Max % inhibit of spontaneous locomotor activity, Compound with 3 mg/kg Δ^9-THC: 89% (0.1)
Mice [4]; at 1 mg/kg i.v.
  SA: maximum % antagonism of 3 mg/kg Δ^9-THC: 97% (1)
Mice [4]; at 10 mg/kg i.v.
  Max stim of spontaneous locomotor activity, Compound with 3 mg/kg Δ^9-THC: 50% (10)
Mice [8]; 3 mg/kg Δ^9-THC i.v.
  antagonism of the antinociceptive and hypothermic effects of Δ^9-THC (in words): full, dose-dependent antagonism
Mice [5]; [18]
  ED50: > 30 mg/kg
Mice [6]; Mus musculus, iv, at 30 mg/kg i.v., read-out: Max stim of spontaneous locomotor activity, Compound Alone
  change in vivo at 30 mg/kg: 73%
Mice [6]; [19]
  ED50: > 30 mg/kg
Mice [6]; doses in mg/kg
  Max % inhibit of spontaneous locomotor activity, Compound Alone (in words: stimulation instead of inhibition): stim at 1, 3, 10 & 30
Mice [7]; [20]
  ED50: > 30 mg/kg

## CCCCCCCC(=O)c1nn(-c2ccc(Cl)cc2Cl)c(-c2ccc(Cl)cc2)c1C [Compound O-1272]
CB1 receptor; read-out: Ki
  Ki: 221 ± 36 nM
Mice [3]
  in vivo cannabinoid agonist activity (in words): eliminated in vivo cannabimimetic activity
Mice [5]; i.v., at 30 mg/kg
  RT: maximal effect produced by the analog (change in rectal temperature): −3 (30)^# ° C.
Mice [6]; [14]
  change in vivo at 3 mg/kg: 17%
Mice [6]; [15]
  inhibition in vivo at 30 mg/kg: 54%
Mice [6]; mice, i.v., at 30 mg/kg
  SA: maximal effect produced by the analog: 54% (30)^#
Mice [7]; [20]
  ED50: > 30 mg/kg

## CCCCCNC(=O)c1nn(-c2ccc(Cl)cc2Cl)c(-c2ccc(Cl)cc2)c1C [Compound O-1269, N-(n-pentyl)-5-(4-chlorophenyl)-1-(2,4-dichlorophenyl)-4-methyl-1H-pyrazole-3-carboxamide]
CB1 receptor; Ki (nM)
  Ki: 32 ± 5 nM
Mice [1]; at 3 mg/kg i.v.
  % MPE: maximum % antagonism of 3 mg/kg Δ^9-THC: 66% (3)
Mice [2]; at 1 mg/kg i.v.
  RT: maximum % antagonism of 3 mg/kg Δ^9-THC: 43% (1)
Mice [3]
  in vivo cannabinoid agonist activity (in words): agonist activity
Mice [4]; at 3 mg/kg i.v.
  SA: maximum % antagonism of 3 mg/kg Δ^9-THC: 38% (3)
Mice [4]; at 10 mg/kg i.v.
  Max % inhibit of spontaneous locomotor activity, Compound with 3 mg/kg Δ^9-THC: 91% (10)
Mice [4]; [12]
  Max stim of spontaneous locomotor activity, Compound with 3 mg/kg Δ^9-THC (in words): None (1, 3 & 10)
Mice [5]; [13]
  ED50: 11 µmol/kg
Mice [6]; Mus musculus, iv, at 1 mg/kg i.v., read-out: Max stim of spontaneous locomotor activity, Compound Alone
  change in vivo at 1 mg/kg: 7%
Mice [6]; [15]
  inhibition in vivo at 30 mg/kg: 87%
Mice [6]; [16]
  ED50: 11 µmol/kg
Mice [7]; [17]
  ED50: 21 µmol/kg

## CCCCCC(=O)c1nn(-c2ccc(Cl)cc2Cl)c(-c2ccc(Cl)cc2)c1C [Compound O-1271]
CB1 receptor; Ki (nM)
  Ki: 82 ± 10 nM
Mice [1]; at 10 mg/kg i.v.
  % MPE: maximum % antagonism of 3 mg/kg Δ^9-THC: 65% (10)
Mice [2]; at 3 mg/kg i.v.
  RT: maximum % antagonism of 3 mg/kg Δ^9-THC: 36% (3)
Mice [3]
  in vivo cannabinoid agonist activity (in words): eliminated in vivo cannabimimetic activity; also recorded: did not have agonist properties
Mice [4]; at 3 mg/kg i.v.
  Max % inhibit of spontaneous locomotor activity, Compound with 3 mg/kg Δ^9-THC: 58% (3)
Mice [4]; at 10 mg/kg i.v.
  SA: maximum % antagonism of 3 mg/kg Δ^9-THC: 77% (10)
Mice [4]; [12]
  Max stim of spontaneous locomotor activity, Compound with 3 mg/kg Δ^9-THC (in words): None (3 & 10)
Mice [8]; in combination with 3 mg/kg Δ^9-THC i.v.
  average % antagonism across the three measures: 59%
Mice [5]; [18]
  ED50: > 30 mg/kg
Mice [6]; [14]
  change in vivo at 3 mg/kg: 54%
Mice [6]; [15]
  inhibition in vivo at 30 mg/kg: 7%
Mice [6]; [19]
  ED50: > 30 mg/kg
Mice [6]
  stimulation of locomotor activity: 54%
Mice [7]; [20]
  ED50: > 30 mg/kg

## N-(N-Piperdyl)-3-(2,4-dichlrophenyl)-4-(4′-(1′-methylpentyl)phenyl)-5-methylpyrazole carboxamide [Compound O-1690]
CB1 receptor; read-out: Ki
  Ki: 2.6 ± 0.13 nM
Mice [1]; compared to O-1302
  antagonist potency, fold increase for antinociception: approximately 3 fold
Mice [2]; compared to O-1302
  antagonist potency, fold increase for hypothermia: approximately 3 fold
Mice [4]; at 0.3 mg/kg i.v.
  Max % inhibit of spontaneous locomotor activity, Compound with 3 mg/kg Δ^9-THC: 88% (0.3)
Mice [4]; at 1 mg/kg i.v.
  SA: maximum % antagonism of 3 mg/kg Δ^9-THC: 65% (1)
Mice [4]; at 10 mg/kg i.v.
  Max stim of spontaneous locomotor activity, Compound with 3 mg/kg Δ^9-THC: 39% (10)
Mice [5]; i.v.
  RT: > dose, 50% activity not achieved at this highest dose tested: >30 mg/kg
Mice [6]; at 10 mg/kg i.v.
  Max % inhibit of spontaneous locomotor activity, Compound Alone: 24% (10)
Mice [6]; at 30 mg/kg i.v.
  Max stim of spontaneous locomotor activity, Compound Alone: 18% (30)
Mice [6]; mice, i.v.
  SA: > dose, 50% activity not achieved at this highest dose tested: >30 mg/kg
Mice [7]; i.v.
  TF: > dose, 50% activity not achieved at this highest dose tested: >30 mg/kg

## CCCCCc1cc(O)c2c(c1)OC(C)(C)[C@@H]1CCC(C)=C[C@@H]21 [Δ^9-THC, Δ^9-tetrahydrocannabinol]
Mice [9]
  TF (tail flick, % MPE) ED50: 2.7 µmol/kg
Mice [10]
  SA (suppression of spontaneous activity) ED50: 0.92 µmol/kg
Mice [11]
  RT (rectal temperature) ED50: 2.5 µmol/kg

## CCCCCc1ccc(-n2nc(C(=O)NN3CCCCC3)c(C)c2-c2ccc(Cl)cc2)cc1 [Compound O-1255]
CB1 receptor; read-out: Ki
  Ki: 433 ± 103 nM
CB1 receptor; compared to O-1254
  CB1 binding affinity, fold less than the n-butyl compound: ~2 fold
Mice [1]; at 10 mg/kg i.v.
  % MPE: maximum % antagonism of 3 mg/kg Δ^9-THC: 13% (10)
Mice [2]; at 10 mg/kg i.v.
  RT: maximum % antagonism of 3 mg/kg Δ^9-THC: 14% (10)
Mice [4]; at 10 mg/kg i.v.
  Max % inhibit of spontaneous locomotor activity, Compound with 3 mg/kg Δ^9-THC: 65% (10)
  SA: maximum % antagonism of 3 mg/kg Δ^9-THC: 0% (10)
Mice [4]; [12]
  Max stim of spontaneous locomotor activity, Compound with 3 mg/kg Δ^9-THC (in words): None (10)
Mice [5]; [18]
  ED50: > 30 mg/kg
Mice [6]; Mus musculus, iv, at 10 mg/kg i.v., read-out: Max % inhibit of spontaneous locomotor activity, Compound Alone
  inhibition in vivo at 10 mg/kg: 20%
Mice [6]; [19]
  ED50: > 30 mg/kg
Mice [6]; [12]
  Max stim of spontaneous locomotor activity, Compound Alone (in words): None (3, 10 & 30)
Mice [7]; [20]
  ED50: > 30 mg/kg
